Test results published in patent US20090054333A1, “Peptide inhibitors of cyclin-dependent kinase activity and uses thereof” (priority 2006, published 2009).
Blank lines part the entries; values can stand above or below the molecule they belong to. No end group written: not given here.

Target: cdk2
Test: in vitro cdk2 kinase assay with GST-fusion proteins, histone H1 substrate
Type: biochemical
Design: key to Kinase assay (inhibitory effect on cdk2 activity): P=positive; N=negative
Conditions: for Kinase assay (inhibitory effect on cdk2 activity): 0.1 μg GST-fusion protein, cdk2 immunoprecipitated from NIH/3T3; for inhibitory effect on cdk2 activity / histone H1 phosphorylation in vitro: GST-fusion protein added to cdk2 immunoprecipitate from NIH/3T3
Procedure: Constructs preparation: A prokaryotic expression vector pGEX-2T (Stratagene Inc., La Jolla Calif.) and polymerase chain reaction (PCR) were used to generate chimeric Glutathione-S-Transferase constructs. The primers used by PCR to amplify the fragments that were subcloned in the pGEX-2T were derived from the 5′ and 3′ ends of different regions of the spacer domain of […]. The mammalian expression vector pEF6/V5-His TOPO (Invitrogen Corp, Carlsbad, Calif.) was used to generate the constructs pEF6/V5-His-spacer and pEF6/V5-His-310 that express the correspondent genes with a C-terminal V5 epitope. The spacer and the 310 fragments were PCR-amplified with the respective primers (Table 1) to generate 3′ends of the cDNAs without stop codons and were subsequently subcloned into pEF6/V5-His TOPO (Invitrogen Corp, Carlsbad, Calif.) according to the manufacturer's instructions to obtain cDNAs coding for C-terminal fusion proteins. All generated constructs were confirmed by automated sequencing. Information regarding the primers is available upon request.
GST Fusion protein preparation: XL1-Blue bacteria carrying the pGEX-2T vectors were grown to mid log phase and then induced to express protein by adding 0.25 mM of isopropyl-1-thio-β-D-galactopyranoside (IPTG, Roche Applied Science, Indianapolis, Ind.). The cultures were shaken for 4 h; bacteria were then pelleted and resuspended in NENT buffer (20 mM Tris pH 8, 100 mM NaCl, 1 mM EDTA, 0.5% NP-40). Cell suspensions were sonicated, pelleted and the supernatant collected. The remaining bacteria were then resuspended in NENT buffer plus 2% of N-Lauryl-Sarcosine, pelleted and the supernatants were collected again. The combined supernatants were incubated with Glutathione agarose (Amersham Biosciences, Piscataway, N.J.) overnight at 4° C. The agarose was then pelleted and washed three times in NENT buffer.
Kinase assays: Cell lysates from NIH/3T3 were prepared by resuspending pelleted cells in 500 μl of lysis buffer (50 mM Tris, 5 mM EDTA, 250 mM NaCl, 50 mM NaF, 0.1% Triton, 0.1 mM Na3VO4, plus protease inhibitors). An equal amount of protein for each fraction (100 μg) was immunoprecipitated with a polyclonal anti-cdk2 antibody (De Luca et al., 1997, J Biol Chem, 272, 20971-4). The complexes were pulled down with protein A-Sepharose and washed three times with lysis buffer and twice with lysis buffer containing 400 mM NaCl. The complexes were equilibrated in kinase assay buffer (20 mM HEPES pH 7.4, 10 mM MgAc, […], 1 mM DTT). In order to detect the in vitro inhibition of cdk2 activity, each sample was incubated with an equal amount (0.1 μg) of each pGEX-2T fusion protein, in a final volume of 20 μl of kinase buffer, using 5 μCi/sample of γ-ATP (Amersham Biosciences, Piscataway, N.J.) and 2 μg of Histone H1 for 30 minutes at 30° C. Kinase assays were repeated at least three times, giving an inter assay standard deviation within 10% after normalization for protein amount. In order to evaluate the in vivo inhibition of cdk2 activity, cdk2 was immunoprecipitated, as described above, from NIH/3T3 cells transiently transfected with 5 μg of pEF6/V5-spacer, pEF6/V5-Spa310 or the vector alone as a control. The immunocomplexes were split in two tubes. A half of each sample was assayed for cdk2 activity in a final volume of 20 μl of kinase buffer with 5 μCi/sample of γ-ATP and 2 μg of Histone H1 for 30 min. at 30° C.; the second one was tested in western blot analysis to confirm that all the samples contained the amount of cdk2 immunoprecipitated. Briefly the samples were separated into 12% SDS polyacrylamide gels (SDS-PAGE), and then transferred into a nitrocellulose membrane (Schleicher & Schuell, Germany). The membrane was blocked with 5% non-fat dry milk in 1×TBST and incubated with the polyclonal anti-cdk2 antibody described above. […]

Molecule: Spa1: pRb2/p130 spacer fragment, amino acids 616-642, 27 amino acids (VPTCEEVMPPQNLERADEICIAGSPLT; cysteine pairing not given here; also: fused to dimerising Fc or GST)
Kinase assay (inhibitory effect on cdk2 activity): N
inhibitory effect on cdk2 activity / histone H1 phosphorylation in vitro: little or no inhibitory effect

Molecule: Spa3: pRb2/p130 spacer fragment, amino acids 663-711, 49 amino acids (PTTLYDRYSSPPASTTRRRLFVENDSPSDGGTPGRMPPQPLVNAVPVQN; also: fused to dimerising Fc or GST)
Kinase assay (inhibitory effect on cdk2 activity): N
inhibitory effect on cdk2 activity / histone H1 phosphorylation in vitro: little or no inhibitory effect

Molecule: Spa311: pRb2/p130 amino acids 641 to 682 (42 amino acids long), SEQ ID NO:2 (LTPRRVTEVRADTGGLGRSITSPTTLYDRYSSPPASTTRRRL; listed as Homo sapiens)
Kinase assay (inhibitory effect on cdk2 activity): P

Molecule: Spb: pRb2/p130 spacer fragment, amino acids 712-754, 43 amino acids (VSGETVSVTPVPGQTLVTMATATVTANNGQTVTIPVQGIANEN; also: fused to dimerising Fc or GST)
Kinase assay (inhibitory effect on cdk2 activity): N

B3: Spa38: pRb2/p130 amino acids 641 to 702 (62 amino acids long), SEQ ID NO:1 (protein, listed as Homo sapiens)
chain: LTPRRVTEVRADTGGLGRSITSPTTLYDRYSSPPASTTRRRLFVENDSPSDGGTPGRMPPQP
Kinase assay (inhibitory effect on cdk2 activity): P

B4: Spc: pRb2/p130 spacer fragment, amino acids 755-828, 73 amino acids (protein)
chain: GGITFFPVQVNVGGQAQAVTGSIQPLSAQALAGSLSSQQVTGTTLQVPGQVAIQQISPGGQQQKQGQSVTSSSN
modifications: left off: a dimerising Fc or GST
notes: pRb2/p130 spacer fragment, amino acids 755-828, 73 amino acids
Kinase assay (inhibitory effect on cdk2 activity): N

More lines, main results first:

Kinase assay (inhibitory effect on cdk2 activity): N
inhibitory effect on cdk2 activity / histone H1 phosphorylation in vitro: little or no inhibitory effect
Molecule: Spa2: pRb2/p130 spacer fragment, amino acids 641-666, 26 amino acids (LTPRRVTEVRADTGGLGRSITSPTTL; UniProt Q08999 641-666, looked up, fragment)

Kinase assay (inhibitory effect on cdk2 activity): N
Molecule: Spa12: pRb2/p130 spacer fragment, amino acids 616-666, 51 amino acids (VPTCEEVMPPQNLERADEICIAGSPLTPRRVTEVRADTGGLGRSITSPTTL; cysteine pairing not given here; also: fused to dimerising Fc or GST)

Kinase assay (inhibitory effect on cdk2 activity): N
Molecule: Spa72: Table 1 construct: pRb2/p130 spacer fragment, amino acids 652-711, 60 amino acids (DTGGLGRSITSPTTLYDRYSSPPASTTRRRLFVENDSPSDGGTPGRMPPQPLVNAVPVQN; also: fused to dimerising Fc or GST)

Kinase assay (inhibitory effect on cdk2 activity): N
Molecule: Spa312: pRb2/p130 spacer fragment, amino acids 641-673, 33 amino acids (LTPRRVTEVRADTGGLGRSITSPTTLYDRYSSP; also: fused to dimerising Fc or GST)

Kinase assay (inhibitory effect on cdk2 activity): P
B1: Spa: pRb2/p130 spacer fragment, amino acids 616-711, 96 amino acids (protein)
chain: VPTCEEVMPPQNLERADEICIAGSPLTPRRVTEVRADTGGLGRSITSPTTLYDRYSSPPASTTRRRLFVENDSPSDGGTPGRMPPQPLVNAVPVQN
modifications: left off: a dimerising Fc or GST
inhibitory effect on cdk2 activity / histone H1 phosphorylation in vitro: inhibitory effect on histone H1 phosphorylation

Kinase assay (inhibitory effect on cdk2 activity): P
inhibitory effect on cdk2 activity / histone H1 phosphorylation in vitro: able to inhibit cdk2 activity
B2: Spa23: Table 1 construct: pRb2/p130 spacer fragment, amino acids 641-711, 71 amino acids (protein)
chain: LTPRRVTEVRADTGGLGRSITSPTTLYDRYSSPPASTTRRRLFVENDSPSDGGTPGRMPPQPLVNAVPVQN
modifications: left off: a dimerising Fc or GST
